Experimental data reported in patent publication US9434693B2, “Substituted pyrazoles as N-type calcium channel blockers” (Janssen Pharmaceutica NV, priority 2012, dated 2016).
pIC50: −log10 of the molar value. Where two headings read alike, the source gives them in different places.

How the values were obtained:
[1] = target: N-type calcium channel (α1B (Cav2.2), β3 and α2δ subunits) in stable HEK cell line (Homo sapiens (Human), UniProt Q00975); test: Functional assay (FDSS calcium mobilization): antagonism of N-type calcium channel; assay type: cell-based; conditions: for inhibition at 0.33 µM: HEK293; for pIC50: KCl (50 mM) depolarization, six-point concentration-response
N-type calcium channel (α1B (Cav2.2), β3 and α2δ subunits) in stable HEK cell line, sequence (Q00975 whole entry): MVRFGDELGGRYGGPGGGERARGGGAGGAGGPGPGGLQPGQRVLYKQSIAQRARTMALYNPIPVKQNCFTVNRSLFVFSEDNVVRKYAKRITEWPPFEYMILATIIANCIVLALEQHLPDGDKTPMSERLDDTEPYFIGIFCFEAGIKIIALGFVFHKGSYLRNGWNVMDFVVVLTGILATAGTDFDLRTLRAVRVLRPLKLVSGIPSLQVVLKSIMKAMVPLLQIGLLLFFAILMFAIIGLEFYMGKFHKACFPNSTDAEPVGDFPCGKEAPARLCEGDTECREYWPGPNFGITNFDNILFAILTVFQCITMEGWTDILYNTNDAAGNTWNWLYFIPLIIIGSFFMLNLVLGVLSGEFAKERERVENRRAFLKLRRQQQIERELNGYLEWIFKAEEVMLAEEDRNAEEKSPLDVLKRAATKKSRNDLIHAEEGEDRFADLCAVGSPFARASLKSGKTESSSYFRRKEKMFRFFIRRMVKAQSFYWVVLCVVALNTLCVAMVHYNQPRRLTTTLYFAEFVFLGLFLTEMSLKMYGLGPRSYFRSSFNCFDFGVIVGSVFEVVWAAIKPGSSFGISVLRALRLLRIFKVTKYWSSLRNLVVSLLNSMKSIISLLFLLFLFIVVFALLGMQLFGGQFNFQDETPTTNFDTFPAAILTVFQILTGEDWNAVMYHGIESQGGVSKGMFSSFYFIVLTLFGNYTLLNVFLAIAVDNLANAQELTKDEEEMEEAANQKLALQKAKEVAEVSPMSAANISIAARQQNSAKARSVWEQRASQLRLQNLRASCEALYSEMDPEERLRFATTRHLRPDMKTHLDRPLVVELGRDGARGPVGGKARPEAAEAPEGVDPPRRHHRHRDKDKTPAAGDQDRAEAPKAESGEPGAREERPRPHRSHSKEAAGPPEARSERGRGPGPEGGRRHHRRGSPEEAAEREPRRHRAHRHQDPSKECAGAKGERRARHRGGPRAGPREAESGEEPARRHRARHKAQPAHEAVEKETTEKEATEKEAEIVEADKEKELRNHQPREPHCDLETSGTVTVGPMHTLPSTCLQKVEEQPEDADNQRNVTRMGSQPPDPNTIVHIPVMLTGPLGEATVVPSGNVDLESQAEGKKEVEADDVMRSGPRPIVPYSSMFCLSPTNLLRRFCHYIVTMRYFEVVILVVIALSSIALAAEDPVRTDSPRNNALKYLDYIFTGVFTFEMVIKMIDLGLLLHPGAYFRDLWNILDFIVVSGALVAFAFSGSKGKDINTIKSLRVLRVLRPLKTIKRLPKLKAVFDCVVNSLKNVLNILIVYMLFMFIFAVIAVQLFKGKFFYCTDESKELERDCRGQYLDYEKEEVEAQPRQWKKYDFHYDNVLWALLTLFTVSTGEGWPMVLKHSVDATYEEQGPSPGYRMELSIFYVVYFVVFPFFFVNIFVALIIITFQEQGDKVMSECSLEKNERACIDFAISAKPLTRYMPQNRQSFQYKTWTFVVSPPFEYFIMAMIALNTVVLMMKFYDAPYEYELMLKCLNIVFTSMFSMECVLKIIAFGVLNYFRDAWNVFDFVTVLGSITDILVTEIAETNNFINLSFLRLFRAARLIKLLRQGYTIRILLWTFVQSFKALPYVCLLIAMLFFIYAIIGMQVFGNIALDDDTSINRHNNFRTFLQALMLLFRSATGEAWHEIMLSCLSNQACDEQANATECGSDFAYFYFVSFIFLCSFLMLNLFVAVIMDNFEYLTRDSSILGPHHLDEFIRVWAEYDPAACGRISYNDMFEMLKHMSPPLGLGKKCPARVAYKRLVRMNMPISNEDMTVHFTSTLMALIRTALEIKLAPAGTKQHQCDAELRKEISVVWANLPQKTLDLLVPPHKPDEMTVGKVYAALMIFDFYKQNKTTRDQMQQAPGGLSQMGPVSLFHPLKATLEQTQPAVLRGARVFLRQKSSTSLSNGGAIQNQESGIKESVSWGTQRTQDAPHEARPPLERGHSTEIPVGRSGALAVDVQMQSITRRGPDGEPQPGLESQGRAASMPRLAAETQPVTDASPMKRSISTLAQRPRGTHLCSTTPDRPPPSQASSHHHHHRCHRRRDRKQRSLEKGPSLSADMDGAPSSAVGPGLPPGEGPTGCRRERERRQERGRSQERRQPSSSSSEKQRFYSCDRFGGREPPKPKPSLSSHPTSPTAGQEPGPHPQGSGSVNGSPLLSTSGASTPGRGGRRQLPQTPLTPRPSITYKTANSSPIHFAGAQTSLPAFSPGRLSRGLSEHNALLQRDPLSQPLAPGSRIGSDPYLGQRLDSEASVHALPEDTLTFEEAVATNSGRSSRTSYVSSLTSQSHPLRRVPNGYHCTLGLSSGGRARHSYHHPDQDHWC
N-type calcium channel (α1B (Cav2.2), β3 and α2δ subunits) in stable HEK cell line, sequence (P54284 whole entry partner): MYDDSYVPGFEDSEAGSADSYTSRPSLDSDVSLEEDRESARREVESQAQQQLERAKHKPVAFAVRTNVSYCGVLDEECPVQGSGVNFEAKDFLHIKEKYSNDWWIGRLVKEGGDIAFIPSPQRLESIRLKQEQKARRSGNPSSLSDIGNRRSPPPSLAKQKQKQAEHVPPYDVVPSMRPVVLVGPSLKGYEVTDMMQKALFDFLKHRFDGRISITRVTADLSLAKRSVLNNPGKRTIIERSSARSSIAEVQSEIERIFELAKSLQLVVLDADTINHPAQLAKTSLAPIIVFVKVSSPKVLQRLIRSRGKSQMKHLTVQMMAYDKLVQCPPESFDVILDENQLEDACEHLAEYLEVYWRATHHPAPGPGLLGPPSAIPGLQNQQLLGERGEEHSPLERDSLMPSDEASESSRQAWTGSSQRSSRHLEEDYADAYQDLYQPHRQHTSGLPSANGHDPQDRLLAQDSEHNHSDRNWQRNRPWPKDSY
N-type calcium channel (α1B (Cav2.2), β3 and α2δ subunits) in stable HEK cell line, sequence (P54289 25-1103 partner): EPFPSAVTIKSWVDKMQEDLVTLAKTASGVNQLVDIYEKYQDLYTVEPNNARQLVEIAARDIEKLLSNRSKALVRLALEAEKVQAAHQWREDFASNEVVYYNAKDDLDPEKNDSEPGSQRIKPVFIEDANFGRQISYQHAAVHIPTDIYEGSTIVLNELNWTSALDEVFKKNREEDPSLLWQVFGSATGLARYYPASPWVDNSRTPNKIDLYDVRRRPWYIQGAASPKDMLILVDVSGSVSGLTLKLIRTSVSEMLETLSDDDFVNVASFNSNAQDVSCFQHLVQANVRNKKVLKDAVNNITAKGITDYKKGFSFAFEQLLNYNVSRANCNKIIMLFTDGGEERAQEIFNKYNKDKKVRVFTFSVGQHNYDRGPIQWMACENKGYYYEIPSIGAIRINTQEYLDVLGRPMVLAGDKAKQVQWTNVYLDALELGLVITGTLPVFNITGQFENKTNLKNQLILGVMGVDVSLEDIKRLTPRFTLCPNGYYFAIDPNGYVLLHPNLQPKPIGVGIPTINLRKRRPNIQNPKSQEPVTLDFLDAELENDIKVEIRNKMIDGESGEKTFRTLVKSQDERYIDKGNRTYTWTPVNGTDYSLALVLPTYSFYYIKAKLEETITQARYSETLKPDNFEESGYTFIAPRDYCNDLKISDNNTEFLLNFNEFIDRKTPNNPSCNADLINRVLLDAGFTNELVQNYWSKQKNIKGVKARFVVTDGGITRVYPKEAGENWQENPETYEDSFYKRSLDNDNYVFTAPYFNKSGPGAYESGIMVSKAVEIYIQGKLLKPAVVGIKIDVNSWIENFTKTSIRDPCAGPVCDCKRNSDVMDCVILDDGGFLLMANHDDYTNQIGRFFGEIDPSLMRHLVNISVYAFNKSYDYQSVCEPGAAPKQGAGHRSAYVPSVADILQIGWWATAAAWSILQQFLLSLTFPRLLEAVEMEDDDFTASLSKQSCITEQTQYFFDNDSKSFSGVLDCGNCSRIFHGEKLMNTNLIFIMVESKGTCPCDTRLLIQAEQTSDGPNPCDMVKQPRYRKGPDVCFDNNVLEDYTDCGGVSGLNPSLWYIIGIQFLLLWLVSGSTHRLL
Procedure: A stable cell line (HEK parent) co-expressing the α1B (Cav2.2), β3 and α2δ subunits of the N-type calcium channel subunits was used. These cells were routinely grown as monolayers in low glucose-containing Dulbecco's Modified Eagle Medium supplemented with 10% FBS, 2 mM L-glutamine, 100 I.U./mL penicillin, 100 μg/mL streptomycin, 400 μg/mL G418 and 200 μg/mL Zeocin (split ratio=1:5). Cells were maintained in 5% CO2 at 37° C. Compounds of Formula (I) were prepared as 10 mM stocks in DMSO from neat compound, if available. Otherwise, the 5 or 10 mM DMSO stock solutions provided in-house were used.
Calcium mobilization responses to KCl depolarization were evaluated by measuring the intensity of calcium-mediated fluorescent signal in the presence of BD Calcium Assay Dye (BD Biosciences, Franklin Lakes, N.J., U.S.A.), utilizing a Functional Drug Screening System (FDSS) by Hamamatsu Corporation (Bridgewater, N.J. U.S.A.).
Twenty-four hr prior to assay, cells were seeded in clear-base poly-D-lysine-coated 384-well plates (BD Biosciences) at a density of 5,000 cells per well in culture medium and grown overnight in 5% CO2 at 37° C. On the day of assay, growth media were removed, and cells were loaded with BD calcium assay dye (BD Biosciences) for 35 min at 37° C. under 5% CO2 and then for 25 min at room temp. Utilizing the FDSS, cells were exposed to representative compounds of Formula (I) at varying concentrations, and intracellular calcium was measured for 5 min prior to the addition of 50 mM KCl for an additional 3 min of measurement.
IC50 values for representative compounds of Formula (I) were determined from six-point concentration-response experiments and represent the concentration of said compound required to inhibit 50% of the maximal response. Maximal fluorescence intensity (FI) achieved upon addition of 50 mM KCl was exported from the FDSS software and further analyzed using GraphPad Prism 3.02 (Graph Pad Software Inc., San Diego, Calif., U.S.A.). Data were normalized to the maximum average counts from quadruplicate wells for each condition in the presence of 50 mM KCl and to the minimum average counts in the presence of buffer. Theoretical curves were generated using nonlinear regression curve-fitting analysis of either sigmoidal concentration-response or sigmoidal concentration-response (variable slope), and the IC50 values with the best-fit curve determined by GraphPad Prism were reported.

N-type calcium channel = N-type calcium channel (Homo sapiens (Human), UniProt Q00975); test: Automated electrophysiology assay (QPatch-HT whole-cell patch clamp); assay type: cell-based
N-type calcium channel, sequence (Q00975 whole entry): as the sequence (Q00975 whole entry) above
N-type calcium channel, sequence (P54284 whole entry partner): as the sequence (P54284 whole entry partner) above
N-type calcium channel, sequence (P54289 25-1103 partner): as the sequence (P54289 25-1103 partner) above
Procedure: Cells were grown in T175 flasks to 50%-90% confluence. At the time of use, cells were enzymatically treated with Detachin (Genlantis, San Diego, Calif. USA), centrifuged, rinsed, and resuspended in 293 SFM II media (Life Technologies, Grand Island, N.Y. U.S.A.) supplemented with 25 mM HEPES (Sigma-Aldrich, St. Louis, Mo. U.S.A.) to a concentration of 2-3×10^6 cells/mL. Cells were added to the automated cell preparation station on the QPatch-HT (Sophion Biosciences, North Brunswick, N.J. U.S.A.), and following a 10- to30-min recovery period with gentle stirring, the assay protocol was initiated. During the automated cell preparation, cells were collected, centrifuged and resuspended in an extracellular (EC) solution containing 132 mM NaCl, 1.8 mM CaCl2, 5.4 mM KCl, 0.8 mM MgCl2, 10 mM glucose, and 10 mM HEPES (pH=7.4), adjusted with sucrose to approximately 315 m0sm. The QPlate was primed with an intracellular solution containing 135 mM CsCl, 10 mM EGTA, 4 MgATP, 0.3 NaGTP, and 20 mM HEPES (pH=7.2), adjusted to approximately 290 m0sm with deionized water and the EC solution. Cells were added to the prepared QPlate wells by robotic pipettes of the QPatch-HT.
For cells determined to be in stable whole-cell patch clamp, the EC solution was replaced with a barium (Ba)/triethylammonium (TEA) solution containing 140 mM TEA-Cl, 10 mM BaCl2, 0.8 mM MgCl2, 10 mM glucose and 10 mM HEPES (pH=7.4). High (40 mM) BaCl2 concentrations were made with adjustments to TEA-Cl (90 mM) to maintain the osmolarity. From a resting potential of −80 mV, a train of depolarizing pulses (15 pulses at 5 Hz, +20 mV) was delivered to the cell once every 30 sec for […], and the resulting currents were measured during a control period (no compound). This protocol was repeated for each subsequent addition of control buffer with or without compound (three periods total, each with four trains). The current generated in the 1st and 15th pulses of the last train of each period in the presence of each drug concentration was normalized to the current generated during the control period at the respective pulses (representing low- and high-frequency stimulation, respectively). Data from both the second and third drug application periods were analyzed for each cell. A final addition of Ba/TEA solution containing 60-100 μM CdCl2 was made to block all N-type current and to “zero” the currents for each cell. All buffer/compound additions were made using a “spitting” feature of the QPatch-HT, which added three repetitions of 5 μL solution at the beginning of each recording period.
To examine closed-state inactivation, cells were subjected to a channel-activating 50-msec depolarizing step pulse from −80 to +10 mV, followed by a 5-sec nonactivating step to voltages ranging from −130 to −60 mV in 10 mV increments and then a 50-ms step from −80 to +10 mV to assess the remaining current. Currents from the activating voltage pulse were normalized to the peak value of the test pulse following the −130 mV step and fit to a Boltzman equation to obtain the V1/2. Roscovitine (Sigma-Aldrich) was prepared as a 100 mM stock in dimethyl sulfoxide and diluted to the indicated working concentrations. […]. Compounds of Formula (I) were diluted first into dimethyl sulfoxide and then into 10% pluronic F-127 in water (Life Technologies), sonicated for 1 min and diluted into EC buffer. Vehicle controls were run in parallel in all experiments.
Unless otherwise indicated, statistics for comparing among electrophysiological results utilized a one-way analysis of variance with Fisher's least squares determination test for pair-wise comparison.

[2] = high-frequency stimulation (15th pulse of train, 5 Hz), read-out: QPatch at High Frequency % Inhibition at 0.1 μM
[3] = low-frequency stimulation (1st pulse of train), read-out: QPatch at Low Frequency % Inhibition at 0.1 μM

| SMILES | inhibition at 0.33 µM ([1]; FDSS, 0.33 μM compound) [%] | pIC50 [1] | inhibition at 0.1 µM (N-type calcium channel; [2]) [%] | inhibition at 0.1 µM (N-type calcium channel; [3]) [%] | % Inhibition (%) at 0.33 μM ([1]; FDSS, 0.33 μM compound) [%] |
| --- | --- | --- | --- | --- | --- |
| COc1ccccc1-n1nc(OC2CN(S(C)(=O)=O)C2)cc1-c1ccc(Cl)cc1 [Compound 26, 5-(4-Chlorophenyl)-1-(2-methoxyphenyl)-3-{[1-(methylsulfonyl)azetidin-3-yl]oxy}-1H-pyrazole] | 91 | 7.51 | 40 | 37 | – |
| CC(C)Oc1ccccc1-n1nc(OC2CCN(S(C)(=O)=O)CC2)cc1-c1ccc(Cl)cc1 [Compound 20, 4-({5-(4-Chlorophenyl)-1-[2-(1-methylethoxy)phenyl]-1H-pyrazol-3-yl}oxy)-1-(methylsulfonyl)piperidine] | – | 7.67 | 37 | 24 | – |
| COc1ccccc1-n1nc(OC2CN(C(=O)N(C)OC)C2)cc1-c1ccc(Cl)cc1 [Compound 29, 3-{[5-(4-Chlorophenyl)-1-(2-methoxyphenyl)-1H-pyrazol-3-yl]oxy}-N-methoxy-N-methylazetidine-1-carboxamide] | 94 | 7.85 | 1 | -24 | – |
| COc1ccccc1-n1nc(OC2CCN(S(=O)(=O)C(C)C)CC2)cc1-c1ccc(Cl)cc1 [Compound 21, 4-{[5-(4-Chlorophenyl)-1-(2-methoxyphenyl)-1H-pyrazol-3-yl]oxy}-1-[(1-methylethyl)sulfonyl]piperidine] | 95 | 7.44 | 23 | 15 | – |
| COc1ccccc1-n1nc(OC2CCN(S(=O)(=O)C3CC3)CC2)cc1-c1ccc(Cl)cc1 [Compound 15, 4-{[5-(4-Chlorophenyl)-1-(2-methoxyphenyl)-1H-pyrazol-3-yl]oxy}-1-(cyclopropylsulfonyl)piperidine] | – | 8.05 | 55 | 25 | – |
| COc1ccccc1-n1nc(OC2CCC(=O)CC2)cc1-c1ccc(Cl)cc1 [Compound 2, 4-{[5-(4-Chlorophenyl)-1-(2-methoxyphenyl)-1H-pyrazol-3-yl]oxy}cyclohexanone] | – | 7.55 | – | – | – |
| COc1ccccc1-n1nc(OC2CC(C)(C)SC(C)(C)C2)cc1-c1ccc(Cl)cc1 [Compound 36, 5-(4-Chlorophenyl)-1-(2-methoxyphenyl)-3-[(2,2,6,6-tetramethyltetrahydro-2H-thiopyran-4-yl)oxy]-1H-pyrazole] | 91 | 8.23 | – | – | – |
| COc1ccc(-c2cc(OC3CC(C)(C)OC(C)(C)C3)nn2-c2ccccc2OC)cc1 [Compound 31, 1-(2-Methoxyphenyl)-5-(4-methoxyphenyl)-3-[(2,2,6,6-tetramethyltetrahydro-2H-pyran-4-yl)oxy]-1H-pyrazole] | 97 | 8.03 | 44 | 28 | – |
| COc1ccccc1-n1nc(OC2CC(C)(C)S(=O)(=O)C(C)(C)C2)cc1-c1ccc(Cl)cc1 [Compound 37, 5-(4-Chlorophenyl)-1-(2-methoxyphenyl)-3-[(2,2,6,6-tetramethyl-1,1-dioxidotetrahydro-2H-thiopyran-4-yl)oxy]-1H-pyrazole] | 98 | 8.72 | – | – | – |
| CCc1ccccc1-n1nc(OC2CCN(S(C)(=O)=O)CC2)cc1-c1ccc(Cl)cc1 [Compound 19, 4-{[5-(4-Chlorophenyl)-1-(2-ethylphenyl)-1H-pyrazol-3-yl]oxy}-1-(methylsulfonyl)piperidine] | – | 7.01 | – | – | – |
| COc1ccccc1-n1nc(OC2CN(C(=O)OC(C)(C)C)C2)cc1-c1ccc(Cl)cc1 [Compound 22, tert-Butyl 3-{[5-(4-chlorophenyl)-1-(2-methoxyphenyl)-1H-pyrazol-3-yl]oxy}azetidine-1-carboxylate] | 90 | 7.17 | – | – | – |
| COc1ccccc1-n1nc(O[C@H]2CC[C@@H](NC(=O)OC(C)(C)C)CC2)cc1-c1ccc(Cl)cc1 [Compound 11, tert-Butyl (cis-4-{[5-(4-chlorophenyl)-1-(2-methoxyphenyl)-1H-pyrazol-3-yl]oxy}cyclohexyl)carbamate] | – | 7.21 | – | – | – |
| COc1ccccc1-n1nc(O[C@H]2CC(C)(C)[S@+]([O-])C(C)(C)C2)cc1-c1ccc(Cl)cc1.O=C(O)C(F)(F)F [Compound 38, (1r,4r)-4-((5-(4-chlorophenyl)-1-(2-methoxyphenyl)-1H-pyrazol-3-yl)oxy)-2,2,6,6-tetramethyltetrahydro-2H-thiopyran 1-oxide trifluoroacetate] | – | 8.57 | – | – | 98 |
| COc1ccccc1-n1nc(OC2CCN(C(=O)N(C)C)CC2)cc1-c1ccc(Cl)cc1 [Compound 4, 4-{[5-(4-Chlorophenyl)-1-(2-methoxyphenyl)-1H-pyrazol-3-yl]oxy}-N,N-dimethylpiperidine-1-carboxamide] | – | 7.85 | – | – | – |
| COc1ccccc1-n1nc(OC2CC(C)(C)SC(C)(C)C2)cc1-c1ccc(C#N)cc1 [Compound 44, 4-{1-(2-Methoxyphenyl)-3-[(2,2,6,6-tetramethyltetrahydro-2H-thiopyran-4-yl)oxy]-1H-pyrazol-5-yl}benzonitrile] | 87 | 7.92 | – | – | – |
| COc1ccccc1-n1nc(OC2CN(S(=O)(=O)c3c(C)noc3C)C2)cc1-c1ccc(Cl)cc1 [Compound 30, 4-[(3-{[5-(4-Chlorophenyl)-1-(2-methoxyphenyl)-1H-pyrazol-3-yl]oxy}azetidin-1-yl)sulfonyl]-3,5-dimethylisoxazole] | 93 | 8.10 | 53 | 30 | – |
